Laboratory results published in patent publication US10413557B2, “Prodrugs of 17.BETA.-HSD1-inhibitors” (FORENDO PHARMA LTD, priority 2014, dated 2019).

Tests used:
[1] = molecular target: T1, recombinant human 17β-HSD2 (Homo sapiens, UniProt P37059); experiment: Inhibition of recombinant human 17β-HSD2 (conversion of 3H-estradiol to estrone, HPLC); format: biochemical; settings: inhibitor 1 μM; 50 nM estradiol, 1 mM NADH, 30 min RT
T1 construct: made in house; host or cells: Sd9 (Sf9) insect cells, baculovirus (Bac to Bac Expression System)
T1 sequence (P37059 1-387): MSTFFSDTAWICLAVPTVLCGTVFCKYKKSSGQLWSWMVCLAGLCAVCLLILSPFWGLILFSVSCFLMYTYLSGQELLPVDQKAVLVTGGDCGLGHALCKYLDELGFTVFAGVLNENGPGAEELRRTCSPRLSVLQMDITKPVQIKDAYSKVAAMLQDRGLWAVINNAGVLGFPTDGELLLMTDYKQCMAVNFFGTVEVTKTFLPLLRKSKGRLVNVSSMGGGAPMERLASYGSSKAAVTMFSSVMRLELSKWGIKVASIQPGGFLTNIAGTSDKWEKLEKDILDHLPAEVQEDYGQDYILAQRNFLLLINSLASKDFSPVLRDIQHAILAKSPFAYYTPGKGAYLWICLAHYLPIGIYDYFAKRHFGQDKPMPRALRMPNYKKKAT
Method: 17β-HSD2 production and isolation: Similarly to 17β-HSD1 the Recombinant baculovirus was generated by the “Bac to Bac Expression System” (Invitrogen). Recombinant bacmid was transfected to Sd9 insect cells using “Cellfectin Reagent” (Invitrogen). 60 h later cells were harvested and supernatant were fractionated by the following protocol: • cells were dissolved into 40 ml of A-buffer (40 mM TRIS, pH8.0, 20% glycerol, 20 μM NAD, 0.4 mM PMSF, 150 mM NaCl, 0.5% dodecyl-β-maltoside+protease inhibitor cocktail) • cells were sonicated • lysate was incubated on ice for 15 min • lysate was centrifuged 5000 rpm 15 min, +4° C. • centrifugation of the supernatant 180 000 g 30 min, +4° C. • pellet was dissolved into 8 ml of A-buffer • not resuspended material was removed by centrifugation 5000 rpm 15 min, +4° C. • the clear supernatant was divided into 100 μl aliquots and were stored frozen until determination of enzymatic activity.
The amount of 17β-HSD2 was analysed by immunoblotting and total protein concentration of each extract batch was determined.
Assay—Inhibition of recombinant human 17β-HSD2: Protein homogenate (4 μg/ml) was incubated in 20 mM KH2PO4 pH 8.5 with 50 nM estradiol (including 800 000 cpm/ml of ^3H-estradiol) and 1 mM […] for 30 min at RT, in the presence of the potential inhibitor at concentrations 1 μM or 0.1 μM. Inhibitor stock solutions were prepared in DMSO. Final concentration of DMSO was adjusted to 1% in all samples. The enzyme reaction was stopped by addition of 10% trichloroacetic acid (final concentration). Samples were centrifuged in a microtiter plate at 4000 rpm for 10 min. Supernatants were applied to reverse phase HPLC on a Waters Symmetry C18 column, equipped with a Waters Sentry Guard column. Isocratic HPLC runs were performed at RT at a flow rate ofl ml/min in acetonitrile:water 48:52 as running solvent. Radioactivity was monitored in the eluate by a Packard Flow Scintillation Analyzer. Total radioactivity for estrone and estradiol were determined in each sample and percent conversion of estradiol to estrone was calculated according to the following formula:
(§1) Percent inhibition was calculated flowingly: % inhibition=100−% conversion

[2] = molecular target: T2, recombinant human 17β-HSD1 (Homo sapiens, UniProt P14061); experiment: Inhibition of recombinant human 17β-HSD1 (conversion of 3H-estrone to estradiol, HPLC); format: biochemical; settings: inhibitor 1 μM; 30 nM estrone, 1 mM NADPH, 30 min RT; read-out: 17β-HDS1 Inhibition % at 1 μM
T2 construct: made in house; host or cells: Sd9 (Sf9) insect cells, baculovirus (Bac to Bac Expression System)
T2 sequence (P14061 1-328): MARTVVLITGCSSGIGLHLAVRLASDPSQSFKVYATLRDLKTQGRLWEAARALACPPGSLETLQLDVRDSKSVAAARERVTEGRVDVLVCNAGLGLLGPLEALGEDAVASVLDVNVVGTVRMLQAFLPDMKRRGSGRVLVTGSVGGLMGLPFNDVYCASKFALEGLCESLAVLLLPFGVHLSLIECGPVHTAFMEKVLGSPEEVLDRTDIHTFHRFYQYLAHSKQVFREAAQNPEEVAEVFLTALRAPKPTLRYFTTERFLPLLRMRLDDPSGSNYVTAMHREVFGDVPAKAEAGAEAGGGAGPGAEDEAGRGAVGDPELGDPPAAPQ
Method: 17β-HSD1 production and isolation: Recombinant baculovirus was generated by the “Bac to Bac Expression System” (Invitrogen). Recombinant bacmid was transfected to Sd9 insect cells using “Cellfectin Reagent” (Invitrogen). 60 h later cells were harvested; the microsomal fraction was isolated as described by Puranen, T. J., Poutanen, M. H., Peltoketo, H. E., Vihko, P. T. and Vihko, R. K. (1994) Site-directed mutagenesis of the putative active site of human 17 β-hydroxysteroid dehydrogenase type 1. Biochem. J. 304: 289-293. Aliquots were stored frozen until determination of enzymatic activity.
Assay—Inhibition of recombinant human 17β-HSD1: Protein homogenate (0.1 μg/ml) was incubated in 20 mM KH2PO4 pH 7.4 with 30 nM estrone (including 800 000 cpm/ml of ^3H-estrone) and 1 mM NADPH for 30 min at RT, in the presence of the potential inhibitor at concentrations 1 μM or 0.1 μM. Inhibitor stock solutions were prepared in DMSO. Final concentration of DMSO was adjusted to 1% in all samples. The enzyme reaction was stopped by addition of 10% trichloroacetic acid (final concentration). Samples were centrifuged in a microtiter plate at 4000 rpm for 10 min. Supernatants were applied to reverse phase HPLC on a Waters Symmetry C18 column, equipped with a Waters Sentry Guard column. Isocratic HPLC runs were performed at RT at a flow rate of 1 ml/min in acetonitrile:water 48:52 as running solvent. Radioactivity was monitored in the eluate by a Packard Flow Scintillation Analyzer. Total radioactivity for estrone and estradiol were determined in each sample and percent conversion of estrone to estradiol was calculated according to the following formula:
as §1

Cc1cnc(NC(=O)CC[C@@H]2C/C(=N\O)[C@@]3(C)CCC4c5cc(Cl)c(O)c(Cl)c5CCC4C23)s1 (stereo partly drawn) [VIV-30, 3-{(13S,15R)-2,4-Dichloro-3-hydroxy-17-[(E)-hydroxyimino]-13-methyl-7,8,9,11,12,13,14,15,16,17-decahydro-6H-cyclopenta[a]phenanthren-15-yl}-N-(5-methylthiazol-2-yl)propanamide]
inhibition at 1 µM [1]: 23%
inhibition at 1 µM [2]: 87%

Cc1cnc(NC(=O)CC[C@@H]2C/C(=N\O)[C@@]3(C)CCC4c5cc([N+](=O)[O-])c(O)cc5CCC4C23)s1 (stereo partly drawn) [VIV-23, 3-{(13S,15R)-3-Hydroxy-2-nitro-17-[(E)-hydroxyimino]-13-methyl-7,8,9,11,12,13,14,15,16,17-decahydro-6H-cyclopenta[a]phenanthren-15-yl}-N-(5-methylthiazol-2-yl)propanamide]
inhibition at 1 µM [1]: 6%
inhibition at 1 µM [2]: 95%

CO/N=C1\C[C@@H](CCC(=O)Nc2ncc(C)s2)C2C3CCc4c(ccc(O)c4C#N)C3CC[C@]12C (stereo partly drawn) [VIV-20, 3-{(13S,15R)-3-hydroxy-17-[(E)-methoxyimino]-13-methyl-4-nitrile-7,8,9,11,12,13,14,15,16,17-decahydro-6H-cyclopenta[a]phenanthren-15-yl}-N-(5-methylthiazol-2-yl)propanamide]
inhibition at 1 µM [1]: 0%
inhibition at 1 µM [2]: 73%

Cc1cnc(NC(=O)CC[C@@H]2C/C(=N\O)[C@@]3(C)CCC4c5ccc(O)cc5CCC4C23)s1 (stereo partly drawn) [VIV-22, 3-{(13S,15R)-3-Hydroxy-17-[(E)-hydroxyimino]-13-methyl-7,8,9,11,12,13,14,15,16,17-decahydro-6H-cyclopenta[a]phenanthren-15-yl}-N-(5-methylthiazol-2-yl)propanamide]
inhibition at 1 µM [1]: 4%
inhibition at 1 µM [2]: 81%

CO/N=C1\C[C@@H](CCC(=O)Nc2ncc(C)s2)C2C3CCc4cc(O)c(I)cc4C3CC[C@]12C (stereo partly drawn) [VIV-6, 3-{(13S,15R)-3-Hydroxy-2-iodo-17-[(E)-methoxyimino]-13-methyl-7,8,9,11,12,13,14,15,16,17-decahydro-6H-cyclopenta[a]phenanthren-15-yl}-N-(5-methylthiazol-2-yl)propanamide]
inhibition at 1 µM [1]: 0%
inhibition at 1 µM [2]: 90%

CO/N=C1\C[C@@H](CCC(=O)Nc2ncc(C)s2)C2C3CCc4c(ccc(O)c4Br)C3CC[C@]12C (stereo partly drawn) [VIV-10, 3-{(13S,15R)-4-Bromo-3-hydroxy-17-[(E)-methoxyimino]-13-methyl-7,8,9,11,12,13,14,15,16,17-decahydro-6H-cyclopenta[a]phenanthren-15-yl}-N-(5-methylthiazol-2-yl)propanamide]
inhibition at 1 µM [1]: 6%
inhibition at 1 µM [2]: 78%

Cc1cnc(NC(=O)CC[C@@H]2C/C(=N\O)[C@@]3(C)CCC4c5cc(Br)c(O)c(Br)c5CCC4C23)s1 (stereo partly drawn) [VIV-27, 3-{(13S,15R)-2,4-Dibromo-3-hydroxy-17-[(E)-hydroxyimino]-13-methyl-7,8,9,11,12,13,14,15,16,17-decahydro-6H-cyclopenta[a]phenanthren-15-yl}-N-(5-methylthiazol-2-yl)propanamide]
inhibition at 1 µM [1]: 28%
inhibition at 1 µM [2]: 98%

CO/N=C1\C[C@@H](CCC(=O)Nc2ncc(C)s2)C2C3CCc4cc(O)c([N+](=O)[O-])cc4C3CC[C@]12C (stereo partly drawn) [VIV-2, 3-{(13S,15R)-3-Hydroxy-17-[(E)-methoxyimino]-13-methyl-2-nitro-7,8,9,11,12,13,14,15,16,17-decahydro-6H-cyclopenta[a]phenanthren-15-yl}-N-(5-methylthiazol-2-yl)propanamide]
inhibition at 1 µM [1]: 3%
inhibition at 1 µM [2]: 64%

Cc1cnc(NC(=O)CC[C@@H]2C/C(=N\O)[C@@]3(C)CCC4c5ccc(O)c([N+](=O)[O-])c5CCC4C23)s1 (stereo partly drawn) [VIV-24, 3-{(13S,15R)-3-Hydroxy-4-nitro-17-[(E)-hydroxyimino]-13-methyl-7,8,9,11,12,13,14,15,16,17-decahydro-6H-cyclopenta[a]phenanthren-15-yl}-N-(5-methylthiazol-2-yl)propanamide]
inhibition at 1 µM [1]: 33%
inhibition at 1 µM [2]: 96%

Cc1cnc(NC(=O)CC[C@@H]2C/C(=N\O)[C@@]3(C)CCC4c5ccc(O)c(Cl)c5CCC4C23)s1 (stereo partly drawn) [VIV-29, 3-{(13S,15R)-4-Chloro-3-hydroxy-17-[(E)-hydroxyimino]-13-methyl-7,8,9,11,12,13,14,15,16,17-decahydro-6H-cyclopenta[a]phenanthren-15-yl}-N-(5-methylthiazol-2-yl)propanamide]
inhibition at 1 µM [1]: 21%
inhibition at 1 µM [2]: 98%

CO/N=C1\C[C@@H](CCC(=O)Nc2ncc(C)s2)C2C3CCc4c(ccc(O)c4Cl)C3CC[C@]12C (stereo partly drawn) [VIV-13, 3-{(13S,15R)-4-Chloro-3-hydroxy-17-[(E)-methoxyimino]-13-methyl-7,8,9,11,12,13,14,15,16,17-decahydro-6H-cyclopenta[a]phenanthren-15-yl}-N-(5-methylthiazol-2-yl)propanamide]
inhibition at 1 µM [1]: 5%
inhibition at 1 µM [2]: 86%

CO/N=C1\C[C@@H](CCC(=O)Nc2ncc(C)s2)C2C3CCc4c(cc(F)c(O)c4Br)C3CC[C@]12C (stereo partly drawn) [VIV-18, 3-{(13S,15R)-4-Bromo-2-fluoro-3-hydroxy-17-[(E)-methoxyimino]-13-methyl-7,8,9,11,12,13,14,15,16,17-decahydro-6H-cyclopenta[a]phenanthren-15-yl}-N-(5-methylthiazol-2-yl)propanamide]
inhibition at 1 µM [1]: 1%
inhibition at 1 µM [2]: 55%

Cc1cnc(NC(=O)CC[C@@H]2C/C(=N\O)[C@@]3(C)CCC4c5cc(Br)c(O)cc5CCC4C23)s1 (stereo partly drawn) [VIV-25, 3-{(13S,15R)-2-Bromo-3-hydroxy-17-[(E)-hydroxyimino]-13-methyl-7,8,9,11,12,13,14,15,16,17-decahydro-6H-cyclopenta[a]phenanthren-15-yl}-N-(5-methylthiazol-2-yl)propanamide]
inhibition at 1 µM [1]: 25%
inhibition at 1 µM [2]: 77%

CO/N=C1\C[C@@H](CCC(=O)Nc2ncc(C)s2)C2C3CCc4cc(O)c(C#N)cc4C3CC[C@]12C (stereo partly drawn) [VIV-19, 3-{(13S,15R)-3-hydroxy-17-[(E)-methoxyimino]-13-methyl-2-nitrile-7,8,9,11,12,13,14,15,16,17-decahydro-6H-cyclopenta[a]phenanthren-15-yl}-N-(5-methylthiazol-2-yl)propanamide]
inhibition at 1 µM [1]: 2%
inhibition at 1 µM [2]: 93%
